Test: Phase I study: toxicity graded with NCI common toxicity criteria in patients
Format: in vivo, human
Text: Fostriecin (CI-920) is a topoisomerase (topo) II catalytic activity inhibitor (Boritzki et al, 1988) (Figure 1). This novel class of topo II-targeting drugs is considered of potential value for treatment of patients with tumours resistant to classic topo II poisons, including anthracyclines and podophyllotoxins (Cummings and Smyth, 1993). The nuclear enzyme topo II is essential for the regulation of DNA conformation (reviewed in Osheroff et al, 1991). Central in its action is the formation of a complex with DNA. Stabilization of this complex by topo II poisons induces DNA damage and cell death (Froelich-Ammon and Osheroff, 1995). Decreased complex formation due to decreased topo II levels is considered to be an important mechanism of tumour-resistance to topo II poisons (Beck and Danks, 1991). The topo II catalytic inhibitor fostriecin is expected to have increased activity against tumour cells with low topo II levels and this was confirmed in in vitro studies (De Jong et al, 1991). […] Because of increased toxi- city of fostriecin in dogs compared to mice, a dose below one-third of the one-tenth mouse equivalent LD10, 2 mg m-2 day-1, was chosen as starting dose in humans (Clinical Brochure Fostriecin, 1991). […] We also performed an analysis of the human pharmacokinetics of fostriecin and ex vivo experiments to investigate if the plasma drug concentrations achieved were sufficient to inhibit a tenipo- side-resistant tumour cell line. The maximum tolerated dose (MTD) of fostriecin could not be established because drug supply was stopped prematurely. However, results of this study may provide a basis for continued clinical development of this agent. PATIENTS AND METHODS Patient selection, drug administration and evaluation Patient eligibility criteria were: histologically confirmed diagnosis of a solid tumour, no longer amenable to established forms of treatment; age 18-75 years; Eastern Cooperative Oncology Group (ECOG) performance status 2; life expectancy 12 weeks; no Phase I and pharmacokinetic study of the topoisomerase II catalytic inhibitor fostriecin RS de Jong1, NH Mulder1, DRA Uges2, DTh Sleijfer1, FJP Hoppener4, HJM Groen3, PHB Willemse1, WTA van der Graaf1 and EGE de Vries1 Departments of 1Medical Oncology, 2Pharmacy and Toxicology, and 3Pulmonary Diseases, University Hospital Groningen, The Netherlands; 4EORTC New Drug Development Office, Amsterdam, The Netherlands Summary We conducted a phase I and pharmacokinetic study of the topoisomerase II catalytic inhibitor fostriecin. Fostriecin was administered intravenously over 60 min on days 1-5 at 4-week intervals. Dose was escalated from 2 mg m-2 day-1 to 20 mg m-2 day-1 in 20 patients. Drug pharmacokinetics was analysed with high performance liquid chromatography with UV-detection. Plasma collected during drug administration was tested in vitro for growth inhibition of a teniposide-resistant small-cell lung cancer (SCLC) cell line. The predominant toxicities were elevated liver transaminases (maximum common toxicity criteria (CTC) grade 4) and serum creatinine (maximum CTC grade 2). […] Duration of elevated alanine-amino transferase (ALT) was dose-limiting in one patient at 20 mg m-2. Other frequent toxicities were grade 1-2 nausea/vomiting, fever and mild fatigue. […] A metabolite, most probably dephosphorylated fostriecin, was detected in plasma and urine. […] However, further escalation seems possible and is warranted to achieve potentially effective drug levels. Fostriecin has a short plasma half-life and longer duration of infusion should be considered. […]

[1] = 12.2 mg m-2, 3 patients/8 courses
[2] = 20 mg m-2, 2 patients/4 courses
[3] = one patient at 20 mg m-2 after course 2

Structure (SMILES): C[C@@](O)(/C=C/[C@H]1CC=CC(=O)O1)[C@@H](C[C@@H](O)\C=C/C=C\C=C\CO)OP(=O)(O)O [fostriecin]
- CTC-grade 1 ALP: courses causing toxicity, all full-dose courses [1]: 3
- CTC-grade 1 ALP: patients developing toxicity in first course [1]: 1
- CTC-grade 1 ALT: courses causing toxicity, all full-dose courses [1]: 0
- CTC-grade 1 ALT: patients developing toxicity in first course [1]: 0
- CTC-grade 1 AST: courses causing toxicity, all full-dose courses [1]: 0
- CTC-grade 1 AST: patients developing toxicity in first course [1]: 0
- CTC-grade 1 GGT: courses causing toxicity, all full-dose courses [1]: 2
- CTC-grade 1 GGT: patients developing toxicity in first course [1]: 1
- CTC-grade 1 creatinine: courses causing toxicity, all full-dose courses [1]: 5
- CTC-grade 1 creatinine: patients developing toxicity in first course [1]: 1
- CTC-grade 2 ALP: courses causing toxicity, all full-dose courses [1]: 1
- CTC-grade 2 ALP: patients developing toxicity in first course [1]: 0
- CTC-grade 2 ALT: courses causing toxicity, all full-dose courses [1]: 1
- CTC-grade 2 ALT: patients developing toxicity in first course [1]: 0
- CTC-grade 2 AST: courses causing toxicity, all full-dose courses [1]: 3
- CTC-grade 2 AST: patients developing toxicity in first course [1]: 0
- CTC-grade 2 GGT: courses causing toxicity, all full-dose courses [1]: 2
- CTC-grade 2 GGT: patients developing toxicity in first course [1]: 1
- CTC-grade 2 bilirubin: courses causing toxicity, all full-dose courses [1]: 6
- CTC-grade 2 bilirubin: patients developing toxicity in first course [1]: 2
- CTC-grade 2 creatinine: courses causing toxicity, all full-dose courses [1]: 3
- CTC-grade 2 creatinine: patients developing toxicity in first course [1]: 2
- CTC-grade 3 ALT: courses causing toxicity, all full-dose courses [1]: 6
- CTC-grade 3 ALT: patients developing toxicity in first course [1]: 2
- CTC-grade 3 AST: courses causing toxicity, all full-dose courses [1]: 4
- CTC-grade 3 AST: patients developing toxicity in first course [1]: 3
- CTC-grade 3 GGT: courses causing toxicity, all full-dose courses [1]: 2
- CTC-grade 3 GGT: patients developing toxicity in first course [1]: 1
- CTC-grade 3 bilirubin: courses causing toxicity, all full-dose courses [1]: 1
- CTC-grade 3 bilirubin: patients developing toxicity in first course [1]: 0
- CTC-grade 4 ALT: courses causing toxicity, all full-dose courses [1]: 1
- CTC-grade 4 ALT: patients developing toxicity in first course [1]: 1
- number of patients with dose-limiting ALT elevation (grade 3 persisting > 7 days) (20 mg m-2): one
- number of patients with reversible thrombocytopenia (grade 2) (20 mg m-2): one
- CTC-grade 1 ALP: courses causing toxicity, all full-dose courses [2]: 2
- CTC-grade 1 ALP: patients developing toxicity in first course [2]: 2
- CTC-grade 1 ALT: courses causing toxicity, all full-dose courses [2]: 0
- CTC-grade 1 ALT: patients developing toxicity in first course [2]: 0
- CTC-grade 1 AST: courses causing toxicity, all full-dose courses [2]: 0
- CTC-grade 1 AST: patients developing toxicity in first course [2]: 0
- CTC-grade 1 GGT: courses causing toxicity, all full-dose courses [2]: 2
- CTC-grade 1 GGT: patients developing toxicity in first course [2]: 1
- CTC-grade 1 creatinine: courses causing toxicity, all full-dose courses [2]: 1
- CTC-grade 1 creatinine: patients developing toxicity in first course [2]: 1
- CTC-grade 2 ALT: courses causing toxicity, all full-dose courses [2]: 2
- CTC-grade 2 ALT: patients developing toxicity in first course [2]: 1
- CTC-grade 2 AST: courses causing toxicity, all full-dose courses [2]: 1
- CTC-grade 2 AST: patients developing toxicity in first course [2]: 0
- CTC-grade 2 GGT: courses causing toxicity, all full-dose courses [2]: 0
- CTC-grade 2 GGT: patients developing toxicity in first course [2]: 0
- CTC-grade 2 creatinine: courses causing toxicity, all full-dose courses [2]: 2
- CTC-grade 2 creatinine: patients developing toxicity in first course [2]: 1
- CTC-grade 3 ALT: courses causing toxicity, all full-dose courses [2]: 2
- CTC-grade 3 ALT: patients developing toxicity in first course [2]: 1
- CTC-grade 3 AST: courses causing toxicity, all full-dose courses [2]: 2
- CTC-grade 3 AST: patients developing toxicity in first course [2]: 1
- CTC-grade 3 GGT: courses causing toxicity, all full-dose courses [2]: 2
- CTC-grade 3 GGT: patients developing toxicity in first course [2]: 1
- number of patients with nausea/vomiting (grade 1-2) during course 1 (20 patients): 11
- time to resolution of ALT and AST elevations after drug administration (all patients): ≤ 3 weeks
- number of patients with microscopic haematuria (grade 1) (doses 6.6 mg m-2 (and above)): seven
- number of patients with transient proteinuria grade 1 (doses 10 mg m-2 (and above)): seven
- number of patients with transient proteinuria grade 2 (doses 10 mg m-2 (and above)): one
- number of patients with mild fatigue (grade 1-2) (during drug administration and the week thereafter): Eight
- maximum tolerated dose (MTD) (escalation stopped at 20 mg m-2): has not been reached
- maximum CTC grade of elevated liver transaminases (human, blood, intravenous): 4
- leuco- or neutropenia (human, in vivo): No leuco- or neutropenia
- number of patients with fever > 38C (grade 2) (human, in vivo): six
- number of patients with fever > 39C (human, in vivo): one
- number of patients with grade 1-2 anaemia (human, in vivo): Fourteen
- number of patients with grade 2 LDH increases (human, in vivo): three
- number of patients with grade 2 hyponatraemia (human, in vivo): one
- number of patients with grade 2 oedema (human, in vivo): one
- number of patients with hyperglycaemia grade 1-2 and/or hypoglycaemia grade 1 (human, in vivo): seven
- number of patients with reversible increases of bilirubin (human, in vivo): four
- number of courses with fever > 38C (grade 2) (human, in vivo, intravenous): 11
- number of patients with occasional increase of body temperature (human, in vivo, intravenous): 17
- time to resolution of renal toxicities after last dose of each course (human, in vivo, intravenous): 1-2 weeks
- number of patients with increase of body temperature during course 1 (human, in vivo, intravenous, 1 course (days 1-5, 4-week interval)): 14
- maximum CTC grade of elevated serum creatinine (human, serum, intravenous): 2
- day of ALT peak per course (median): 2.5 days
- day of serum creatinine peak (median): 3 days
- number of courses with nausea/vomiting (grade 1-2) (of the 42 courses at full dose): 33
- maximum transient proteinuria [3]: 3.3 g 24 h-1
- serum albumin (hypoalbuminaemia) [3]: 28 g/L
- median duration of grade 3 ALT (range 1-9 days): 3.5 days
- PT, fibrinogen, anti-thrombin III and cholinesterase levels (six patients (13 courses) at 10-20 mg m-2, days 0 and 5): not affected

Reference: paper PMC2362650, “Phase I and pharmacokinetic study of the topoisomerase II catalytic inhibitor fostriecin” (British Journal of Cancer, 1999)
